According to patent publication US8703754B2, “6-amino-2-{[(1S)-1-methylbutyl]oxy}-9-[5-(1-piperidinyl)-7,9-dihydro-8H-purin-8-one maleate” (GlaxoSmithKline LLC, priority 2010, dated 2014):

Columns and labels:
[1] = Stability testing under ICH Q1A(R2) and Q1B conditions; format: physicochemical; conditions: ICH Q1A(R2) stability and Q1B photostability conditions
[2] = system: IL-5; experiment: Allergen-driven cytokine assay using fresh human PBMCs from atopic volunteers (IL-5); format: cell-based; conditions: 0.04 μM; PBMCs from three allergic donors, 10 ug/mL Timothy Grass antigen, up to 6 days
Experimental: (§1) Allergen-driven Cytokine Assay Using Fresh Human Peripheral Blood Mononuclear Cells (PBMCs) from Atopic Volunteers
(§2) An assay based on co-culture of atopic human donor derived peripheral blood mononuclear cells (PBMCs) with allergen and test compounds was developed. After 5-6 days culture, cell supernatants were assayed for a range of cytokines.
(§3) Each compound was assayed in triplicate at all concentrations.
(§4) Defibrinated human blood from volunteers known to be allergic to Timothy grass was centrifuged at 2500 rpm for 15 minutes. The upper layer of serum was collected and heat-inactivated at 56° C. for 30 minutes (HI-autologous serum). The lower layer of cells was resuspended in 50 mL PBS (+Ca +Mg), 25 mL diluted blood were overlaid onto 20 mL Lymphoprep in 50 ml tubes then centrifuged at 2500 rpm for 20 minutes at RT. The band at the serum/Lymphoprep interface was carefully removed. The collected cells were washed with PBS and re-suspended at 4×10^6 per mL in growth medium with HI-autologous serum. PBMCs were seeded at 0.4×10^6 cells per well in flat-bottomed 96 well plates in the presence of 10 ug/mL Timothy Grass antigen (Alk Abello) and test compounds at appropriate concentrations in a total volume of 200 μL.
(§5) Incubation and Cytokine Assays
(§6) Plates were incubated at 37° C. in 5% CO2 for up to 6 days. The cell medium from each well was harvested and stored at −20° C. prior to analysis.

[3] = system: TNF-α; experiment: Induction of TNF-α using fresh human PBMCs; format: cell-based; conditions: PBMC, 24 hr, relative to 2 μM resiquimod control, read-out: mean pEC50 for induction of TNF-α (converted)
Experimental: (§7) Assay for the Induction of Interferon-α and TNF-α Using Fresh Human Peripheral Blood Mononuclear Cells (PBMCs)
(§8) 1 μL of test compound was transferred into 96-well tissue culture plates using a Biomek FX. Each compound was assayed in duplicate for each donor. Each plate contained a dilution series of the TLR7/8 agonist resiquimod as standard and Column 11 contained 1 μL of 200 μM resiquimod (giving a 2 μM final concentration, used to define the approximate maximal response to resiquimod).
(§9) Blood samples from two human donors were collected into sodium heparin (10 U/mL). 25 mL volumes of whole blood were overlaid onto 15 mL Histopaque in Leucosep tubes which were centrifuged at 800 g for 20 min and the band at the plasma/histopaque interface carefully removed. The collected cells were centrifuged at 2500 rpm for 10 min and the pellet resuspended in 10 mL of media (RPMI 1640 (Low endotoxin) supplemented with 10% v/v foetal calf serum (FCS, low endotoxin) 100 U/mL penicillin G, 100 μg/mL streptomycin, 10 mM L-glutamine and 1× non-essential amino acids). A 1:20 dilution of the cells was prepared using trypan blue and the cells counted using a haemocytometer.
(§10) Incubation and Assays for Interferon-α and TNF-α

[4] = system: Interferon-α; experiment: Induction of Interferon-α following intranasal dosing in the mouse; format: in vivo; conditions: female BALB/c mice, 2 hours after dosing, ELISA
Experimental: Assay for the Induction of Interferon-α Following Intranasal Dosing in the Mouse
The compound of Reference Example 1 was dissolved in 0.2% Tween 80 in saline and administered intranasally (5 μL in total between the nostrils) to female BALB/c mice (n=6) under general anaesthesia. Animals were euthanased 2 hours after dosing and a terminal blood sample was taken and serum levels of Interferon-a measured using an ELISA assay.

[5] = system: IL-13; experiment: Allergen-driven cytokine assay using fresh human PBMCs from atopic volunteers (IL-13); format: cell-based; conditions: 0.04 μM; PBMCs from three allergic donors, 10 ug/mL Timothy Grass antigen, up to 6 days
Experimental: as §1, §2, §3, §4, §5, §6

[6] = system: Interferon-α; experiment: Induction of Interferon-α using cryopreserved human PBMCs; format: cell-based; conditions: PBMC, 24 hours, normalised to 1 μM resiquimod and DMSO, read-out: mean pEC50 for induction of IFN-α (converted)
Experimental: Assay for the Induction of Interferon-α Using Cryopreserved Human Peripheral Blood Mononuclear Cells (PBMCs)
Serial 2-fold dilutions with DMSO were prepared and 0.25 μl dispensed into 384-well clear Greiner polypropylene plates.
Blood samples of up to 200 mL were obtained from healthy human donors. Whole blood in 25 mL volumes was overlaid onto 15 mL Ficoll gradients in Leucosep tubes, and centrifuged at 1000 g for 20 min. Cells in the band at the plasma/histopaque interface were carefully removed and washed twice with PBS (centrifuged at 400 g for 5 min to harvest). The final pellet was resuspended in freezing medium (90% Heat-inactivated serum, 10% DMSO) to a cell concentration of 4×10^7 cells/mL. The resuspended cells were then cryopreserved (frozen) using a rate controlled freezer, and stored at −140° C. for up to 4 months.
Incubation and Assay for Interferon-α
Immediately prior to assay, vials of cryopreserved (frozen) PBMCs were thawed rapidly in a water bath at 37° C. A 1:10 dilution of the cells in trypan blue was prepared and counted. […]
A multi-isoform immunoassay was used to quantify IFN-α in PBMC supernatants. […] Following three washes with PBS, 30 μl of ×2 T buffer (MSD) was added to each well and the plate was read on an MSD Sector 6000 plate reader. […]

[7] = system: Interferon-α; experiment: Induction of Interferon-α using fresh human PBMCs; format: cell-based; conditions: PBMC, 24 hr, relative to 2 μM resiquimod control, read-out: mean pEC50 for induction of IFN-α (converted)
Experimental: as §7, §8, §9, §10

degradation under stability testing [1]	EC50 [3] [nM]	EC50 [7] [nM]	Compound	reduction of production of the Th2 cytokine IL-5 compared to the allergen control [2] [%]	mean serum levels of Interferon-α [4] [pg/mL]	reduction of production of the Th2 cytokine IL-13 compared to the allergen control [5] [%]	EC50 [6] [nM]
no significant degradation	–	–	CCC[C@H](C)Oc1nc(N)c2[nH]c(=O)n(CCCCCN3CCCCC3)c2n1.O=C(O)/C=C\C(=O)O [Example 2, 6-Amino-2-{[(1S)-1-methylbutyl]oxy}-9-[5-(1-piperidinyl)pentyl]-7,9-dihydro-8H-purin-8-one, Maleate Salt]	–	–	–	–
–	≥ 316	≤ 1	CCC[C@H](C)Oc1nc(N)c2[nH]c(=O)n(CCCCCN3CCCCC3)c2n1 [Reference Example 1, 6-Amino-2-{[(1S)-1-methylbutyl]oxy}-9-[5-(1-piperidinyl)pentyl]-7,9-dihydro-8H-purin-8-one]	≥ 50	21029	≥ 50	< 5.01
